Article PMC8571316 (Scientific Reports, 2021)
Peptide text beside a SMILES is read from it. * marks the point of attachment. Biotin = O=C1N[C@H]2[C@H](CS[C@H]2CCCCC(=O)*)N1; PEG4 = NCCOCCOCCOCCOCCC(=O)O

Test system: Influenza HA
Type: binding

SMILES | cross-reactivity (selectivity of binding, in words)
CC[C@H](C)[C@H](NC(=O)[C@H](CC(=O)O)NC(=O)[C@H](Cc1ccccc1)NC(=O)[C@H](CC(N)=O)NC(=O)CCOCCOCCOCCOCCNC(=O)CCCC[C@@H]1SC[C@@H]2NC(=O)N[C@@H]21)C(=O)N[C@@H](CC(C)C)C(=O)N[C@@H](CC(C)C)C(=O)N[C@@H](Cc1ccccc1)C(=O)N[C@H](C(=O)N[C@@H](Cc1ccccc1)C(=O)N[C@@H](CC(N)=O)C(=O)N[C@@H](Cc1ccc(O)cc1)C(=O)N[C@@H](CCC(=O)O)C(=O)N[C@@H](CCSC)C(=O)N[C@@H](CCC(=O)O)C(=O)N[C@@H](CC(=O)O)C(=O)N[C@@H](CCCCN)C(=O)N[C@@H](Cc1ccccc1)C(=O)N[C@@H](Cc1ccc(O)cc1)C(=O)O)C(C)C [Peptide P168] ({Biotin-PEG4}-NFDILLFVFNYEMEDKFY-OH; C-terminus assumed) | some level of cross-reactivity
CC(C)C[C@H](NC(=O)[C@H](CC(=O)O)NC(=O)[C@H](CCC(=O)O)NC(=O)[C@H](Cc1c[nH]c2ccccc12)NC(=O)[C@H](CCC(=O)O)NC(=O)[C@H](CC(C)C)NC(=O)[C@H](CC(N)=O)NC(=O)[C@H](Cc1ccccc1)NC(=O)[C@@H](NC(=O)[C@H](Cc1ccccc1)NC(=O)[C@H](CC(C)C)NC(=O)[C@H](Cc1ccccc1)NC(=O)[C@H](CC(C)C)NC(=O)[C@@H](NC(=O)[C@H](Cc1c[nH]c2ccccc12)NC(=O)[C@H](CC(=O)O)NC(=O)CCOCCOCCOCCOCCNC(=O)CCCC[C@@H]1SC[C@@H]2NC(=O)N[C@@H]21)[C@@H](C)O)C(C)C)C(=O)N[C@@H](Cc1ccccc1)C(=O)N[C@@H](Cc1ccc(O)cc1)C(=O)O [Peptide P89] ({Biotin-PEG4}-DWTLFLFVFNLEWEDLFY-OH; C-terminus assumed) | some level of cross-reactivity
CC[C@H](C)[C@H](NC(=O)[C@@H](NC(=O)[C@H](Cc1ccc(O)cc1)NC(=O)[C@H](Cc1ccccc1)NC(=O)[C@H](Cc1ccc(O)cc1)NC(=O)[C@@H](NC(=O)[C@H](CCC(=O)O)NC(=O)[C@H](CCSC)NC(=O)[C@H](Cc1c[nH]c2ccccc12)NC(=O)[C@H](Cc1c[nH]cn1)NC(=O)[C@H](CO)NC(=O)[C@H](Cc1ccccc1)NC(=O)[C@H](CCSC)NC(=O)[C@H](CC(=O)O)NC(=O)[C@H](Cc1c[nH]c2ccccc12)NC(=O)[C@H](CC(=O)O)NC(=O)[C@@H](NC(=O)[C@H](CCCCN)NC(=O)CCOCCOCCOCCOCCNC(=O)CCCC[C@@H]1SC[C@@H]2NC(=O)N[C@@H]21)[C@@H](C)O)[C@@H](C)CC)C(C)C)C(=O)O [Peptide P180] ({Biotin-PEG4}-KTDWDMFSHWMEIYFYVI-OH; C-terminus assumed) | some level of cross-reactivity
CC[C@H](C)[C@H](NC(=O)[C@H](CCC(=O)O)NC(=O)[C@H](Cc1ccc(O)cc1)NC(=O)[C@H](Cc1ccc(O)cc1)NC(=O)[C@H](CCSC)NC(=O)[C@H](Cc1c[nH]cn1)NC(=O)[C@H](CCSC)NC(=O)[C@H](Cc1c[nH]c2ccccc12)NC(=O)[C@H](CCCCN)NC(=O)[C@H](CC(=O)O)NC(=O)[C@H](Cc1c[nH]c2ccccc12)NC(=O)[C@H](CCC(=O)O)NC(=O)[C@@H](NC(=O)[C@H](CCCCN)NC(=O)CCOCCOCCOCCOCCNC(=O)CCCC[C@@H]1SC[C@@H]2NC(=O)N[C@@H]21)[C@@H](C)O)C(=O)N[C@@H](Cc1ccccc1)C(=O)N[C@@H](Cc1ccc(O)cc1)C(=O)N[C@@H](CCC(=O)O)C(=O)N[C@@H](CC(=O)O)C(=O)O [Peptide P100] ({Biotin-PEG4}-KTEWDKWMHMYYEIFYED-OH; C-terminus assumed) | some level of cross-reactivity
